In patent US7625911B2, “Amorphous form of erlotinib hydrochloride and its solid amorphous dispersion” (Mai De Ltd., priority 2005, dated 2009):

Assay: Solubility (complete dissolution) of erlotinib hydrochloride in alcohol solvents at elevated temperature
Format: physicochemical
Excerpt: In a first step of the distillation process, crystalline erlotinib hydrochloride is preferably dissolved in an […] solvent; more preferably dissolved in a straight or branched chain C1-C4 alcohol solvent, and most preferably dissolved in methanol or ethanol to form a solution. Erlotinib hydrochloride has the highest solubility in methanol or ethanol, allowing the complete dissolution of erlotinib hydrochloride at elevated temperature.
(§1) In particular, erlotinib hydrochloride is soluble in methanol at or over 50° C., allowing the complete dissolution of erlotinib hydrochloride in methanol at 50° C. or above with a concentration of 10 mg per milliliter (ml). The use of a relatively concentrated solution, e.g. about 10 mg per ml is therefore preferred for methanol.
as §1, with “ethanol” for “methanol”, “70°” for “50°”, “[…]” for “50° C. or above”, “ml.” for “milliliter (ml).”, “ethanol.” for “methanol.”
In particular, erlotinib hydrochloride is soluble in methanol, ethanol or a mixture of ethanol and water solvents at 45° C.-55° C., allowing the complete dissolution of erlotinib hydrochloride in methanol or ethanol at this elevated temperature with a concentration of about 10 mg per ml. The use of a relatively concentrated solution, e.g. about 10 mg per ml or over is therefore preferred for spraying drying process.

concentration at complete dissolution in ethanol (ethanol, soluble at or over 70° C. (sentence also says ambient temperature)): 10 mg per ml
concentration at complete dissolution in methanol (methanol, at 50° C. or above): 10 mg per milliliter (ml)
concentration at complete dissolution in methanol, ethanol or a mixture of ethanol and water (methanol, ethanol or ethanol/water mixture, 45° C.-55° C.): about 10 mg per ml
Compound: C#Cc1cccc(Nc2ncnc3cc(OCCOC)c(OCCOC)cc23)c1.Cl [erlotinib hydrochloride, [6,7-bis(2-methoxy-ethoxy)-quinazolin-4-yl]-(3-ethynyl-phenyl) amine hydrochloride]
